Reference: the NIST ThermoML archive (doi:10.1021/je060271a)
Numbers after ± are expanded uncertainties.

Conditions: Liquid, Vibrating tube method

CCCC(=O)OCC(COC(=O)CCC)(COC(=O)CCC)COC(=O)CCC [pentaerythritol tetrabutyrate]
Conditions	mass density [kg/m3]
303.16 K, 34848 kPa	1063.1 ± 1.3
303.17 K, 281.6 kPa	1042.3 ± 1.2
303.17 K, 295.5 kPa	1042.4 ± 1.2
303.17 K, 308.6 kPa	1042.3 ± 1.2
303.17 K, 338.6 kPa	1042.4 ± 1.2
303.17 K, 356.5 kPa	1042.4 ± 1.2
303.17 K, 372.3 kPa	1042.3 ± 1.2
303.17 K, 389.7 kPa	1042.4 ± 1.2
303.17 K, 409.5 kPa	1042.4 ± 1.2
303.17 K, 424.5 kPa	1042.4 ± 1.2
303.17 K, 439.6 kPa	1042.5 ± 1.2
303.17 K, 457.1 kPa	1042.5 ± 1.2
303.17 K, 488.2 kPa	1042.3 ± 1.2
303.17 K, 509.3 kPa	1042.5 ± 1.2
303.17 K, 526.8 kPa	1042.6 ± 1.2
303.17 K, 1268.4 kPa	1043 ± 1.2
303.17 K, 1312 kPa	1043 ± 1.2
303.17 K, 1333.8 kPa	1043 ± 1.2
303.17 K, 2851.4 kPa	1044.1 ± 1.2
303.17 K, 2920.2 kPa	1044.1 ± 1.2
303.17 K, 4808.4 kPa	1045.3 ± 1.2
303.17 K, 4819 kPa	1045.4 ± 1.2
303.17 K, 4825.7 kPa	1045.3 ± 1.2
303.17 K, 4829.2 kPa	1045.3 ± 1.2
303.17 K, 4830.8 kPa	1045.2 ± 1.2
303.17 K, 4832.3 kPa	1045.3 ± 1.2
303.17 K, 4834.4 kPa	1045.4 ± 1.2
303.17 K, 4836 kPa	1045.4 ± 1.2
303.17 K, 4837.7 kPa	1045.4 ± 1.2
303.17 K, 4839.2 kPa	1045.4 ± 1.2
303.17 K, 4840.6 kPa	1045.4 ± 1.2
303.17 K, 4842.7 kPa	1045.3 ± 1.2
303.17 K, 6518.3 kPa	1046.5 ± 1.3
303.17 K, 6547.8 kPa	1046.4 ± 1.3
303.17 K, 6572.5 kPa	1046.5 ± 1.3
303.17 K, 7027.7 kPa	1046.8 ± 1.3
303.17 K, 7057 kPa	1046.7 ± 1.3
303.17 K, 7087.6 kPa	1046.8 ± 1.3
303.17 K, 7117.6 kPa	1046.7 ± 1.3
303.17 K, 7147.4 kPa	1046.8 ± 1.3
303.17 K, 7177.7 kPa	1046.9 ± 1.3
303.17 K, 7213.5 kPa	1046.9 ± 1.3
303.17 K, 7243.4 kPa	1046.9 ± 1.3
303.17 K, 8394.2 kPa	1047.6 ± 1.3
303.17 K, 8419.6 kPa	1047.7 ± 1.3
303.17 K, 8440.8 kPa	1047.7 ± 1.3
303.17 K, 8462 kPa	1047.7 ± 1.3
303.17 K, 8485.6 kPa	1047.7 ± 1.3
303.17 K, 9218.9 kPa	1048 ± 1.3
303.17 K, 34670 kPa	1063 ± 1.3
303.17 K, 34730 kPa	1063.1 ± 1.3
303.17 K, 34780 kPa	1063.1 ± 1.3
303.17 K, 34833 kPa	1063.2 ± 1.3
323.14 K, 3021.5 kPa	1026.7 ± 1.2
323.14 K, 3045.8 kPa	1026.8 ± 1.2
323.14 K, 3074.9 kPa	1026.9 ± 1.2
323.14 K, 3099.4 kPa	1026.9 ± 1.2
323.14 K, 3124.1 kPa	1027 ± 1.2
323.14 K, 3153.6 kPa	1026.9 ± 1.2
323.14 K, 3179.3 kPa	1026.9 ± 1.2
323.14 K, 3204.7 kPa	1027 ± 1.2
323.14 K, 3230.2 kPa	1027 ± 1.2
323.14 K, 3262.8 kPa	1027.1 ± 1.2
323.14 K, 3289.7 kPa	1027 ± 1.2
323.14 K, 3316.7 kPa	1027.2 ± 1.2
323.14 K, 3376.7 kPa	1027.2 ± 1.2
323.14 K, 3404.8 kPa	1027.3 ± 1.2
323.14 K, 3432.9 kPa	1027.2 ± 1.2
323.14 K, 3526.4 kPa	1027.4 ± 1.2
323.14 K, 3592.6 kPa	1027.3 ± 1.2
323.14 K, 3622.8 kPa	1027.3 ± 1.2
323.14 K, 3654 kPa	1027.4 ± 1.2
323.14 K, 3691.9 kPa	1027.4 ± 1.2
323.14 K, 3723.3 kPa	1027.5 ± 1.2
323.14 K, 3755.5 kPa	1027.4 ± 1.2
323.14 K, 3794.3 kPa	1027.5 ± 1.2
323.14 K, 3827.2 kPa	1027.5 ± 1.2
323.14 K, 3860.3 kPa	1027.6 ± 1.2
323.14 K, 3900.3 kPa	1027.7 ± 1.2
323.14 K, 3935 kPa	1027.6 ± 1.2
323.14 K, 3969.1 kPa	1027.6 ± 1.2
323.14 K, 4004.6 kPa	1027.7 ± 1.2
323.14 K, 4047.6 kPa	1027.8 ± 1.2
323.14 K, 4083.9 kPa	1027.7 ± 1.2
323.14 K, 4121.4 kPa	1027.7 ± 1.2
323.14 K, 4159.5 kPa	1027.8 ± 1.2
323.14 K, 4204 kPa	1027.8 ± 1.2
323.14 K, 4241.5 kPa	1027.9 ± 1.2
323.14 K, 4280.5 kPa	1028 ± 1.2
323.14 K, 4319.3 kPa	1027.9 ± 1.2
323.14 K, 4366.4 kPa	1028 ± 1.2
323.14 K, 4406.1 kPa	1028 ± 1.2
323.14 K, 4447.6 kPa	1028.1 ± 1.2
323.14 K, 4495.9 kPa	1028 ± 1.2
323.14 K, 4536.6 kPa	1028.2 ± 1.2
323.14 K, 4587.3 kPa	1028.3 ± 1.2
323.14 K, 4629.9 kPa	1028.2 ± 1.2
323.14 K, 4673.5 kPa	1028.3 ± 1.2
323.14 K, 4708.8 kPa	1028.3 ± 1.2
323.14 K, 4783.8 kPa	1028.3 ± 1.2
323.14 K, 4863.6 kPa	1028.4 ± 1.2
323.14 K, 4981.8 kPa	1028.4 ± 1.2
323.14 K, 5097.9 kPa	1028.7 ± 1.2
323.14 K, 5295.3 kPa	1028.8 ± 1.2
323.14 K, 5295.4 kPa	1028.7 ± 1.2
323.14 K, 5295.6 kPa	1028.8 ± 1.2
323.14 K, 5487.4 kPa	1028.9 ± 1.2
323.14 K, 5504.7 kPa	1029 ± 1.2
323.14 K, 5543.7 kPa	1028.9 ± 1.2
323.14 K, 12307 kPa	1033.8 ± 1.2
323.14 K, 12337 kPa	1033.7 ± 1.2
323.14 K, 14077 kPa	1034.9 ± 1.2
323.14 K, 14107 kPa	1034.9 ± 1.2
323.14 K, 14132 kPa	1034.8 ± 1.2
323.14 K, 14159 kPa	1034.9 ± 1.2
323.14 K, 14184 kPa	1035 ± 1.2
323.14 K, 14777 kPa	1035.3 ± 1.2
323.14 K, 16272 kPa	1036.3 ± 1.2
323.14 K, 16347 kPa	1036.3 ± 1.2
323.14 K, 16415 kPa	1036.4 ± 1.2
323.14 K, 16456 kPa	1036.4 ± 1.2
323.14 K, 16491 kPa	1036.5 ± 1.2
323.14 K, 16525 kPa	1036.4 ± 1.2
323.14 K, 16567 kPa	1036.5 ± 1.2
323.14 K, 16603 kPa	1036.5 ± 1.2
323.14 K, 16638 kPa	1036.5 ± 1.2
323.14 K, 16681 kPa	1036.6 ± 1.2
323.14 K, 16716 kPa	1036.5 ± 1.2
323.14 K, 16912 kPa	1036.7 ± 1.2
323.14 K, 16948 kPa	1036.8 ± 1.2
323.14 K, 16993 kPa	1036.8 ± 1.2
323.14 K, 17030 kPa	1036.8 ± 1.2
323.14 K, 17069 kPa	1036.8 ± 1.2
323.14 K, 17108 kPa	1036.7 ± 1.2
323.14 K, 17153 kPa	1036.9 ± 1.2
323.14 K, 17191 kPa	1037 ± 1.2
323.14 K, 17229 kPa	1036.9 ± 1.2
323.14 K, 17267 kPa	1036.9 ± 1.2
323.14 K, 17315 kPa	1036.9 ± 1.2
323.14 K, 17354 kPa	1036.9 ± 1.2
323.14 K, 17394 kPa	1037 ± 1.2
323.14 K, 17441 kPa	1037.1 ± 1.2
323.14 K, 17476 kPa	1037 ± 1.2
323.14 K, 17519 kPa	1037.1 ± 1.2
323.14 K, 17554 kPa	1037.2 ± 1.2
323.14 K, 17593 kPa	1037 ± 1.2
323.14 K, 17628 kPa	1037.1 ± 1.2
